Measurements reported in publication PMC7415757, “Monocrotaline-induced liver toxicity in rat predicted by a combined in vitro physiologically based kinetic modeling approach” (Archives of Toxicology, 2020).
Read-outs that look alike come from different tables or passages of the source.

Tests used:
primary rat hepatocytes [1] = experiment: WST-1 cytotoxicity assay with primary rat hepatocytes; assay type: cell-based, rat (Sprague–Dawley); details: primary rat hepatocytes
Procedure: The monocrotaline-induced liver toxicity was tested in vitro using the WST-1 assay which measures the formazan formation by the metabolically active cells from WST-1. Pooled cryopreserved plateable male rat (Sprague–Dawley) hepatocytes (RTCP10™) were thawed and seeded in accordance with the manufacturer’s protocol. Briefly, cells were seeded in 96-well plates (Greiner bio-one, Alphen aan den Rijn, The Netherlands) at a concentration of 5 × 10^5 cells/ml to give 1.25 × 10^4 cells/well and incubated at 37 °C, 5% CO2 in a humidified atmosphere for 6 h to allow cell adherence. […] The solvent DMSO (0.5% (v/v) final concentration in exposure medium) was used as a negative control and triton X (final concentration 1% (v/v) in exposure medium) served as a positive control in all cytotoxicity assays. After exposure for 24 h, 5 μl (1:20 dilution) WST-1 reagent was added to each well and plates were incubated for an additional 1 h. Then, the plate was shaken at 1000 rpm for 1 min, and absorbance was measured at 440 nm (background absorbance at 620 nm was subtracted) using a SpectraMax M2 (Molecular Devices, Sunnyvale, USA).
Data are presented as mean values ± SE from three independent experiments with three different batches of rat hepatocytes. The cell viability was expressed as percentage of the solvent control, with the solvent control set at 100%. The obtained concentration–response curves for hepatotoxicity were fitted with a symmetrical sigmoidal model (Hill slope) which was further used to derive IC50 values using log [inhibitor] vs. normalized response using GraphPad Prism software (version 5.00 for Windows, GraphPad software, San Diego, USA).

primary rat hepatocytes [2] = details: same model system; ref Chen et al. [2018]; read-out: EC50 cell viability; cited from earlier work
[3] = tested on: human liver cell line HepaRG; details: in vitro γH2AX induction potency, ref Louisse et al. ([2019]); cited from earlier work
[4] = ref Chen et al. [2018], cited from earlier work
[5] = ref Chen et al. [2018], cited from earlier work; remark: listed apart in the source
[6] = ref Chen et al. [2018]; cited from earlier work
[7] = Substrate depletion in incubations with pooled rat liver microsomes; assay type: in vitro ADME, rat (Sprague–Dawley); details: liver microsomes versus intestinal microsomes
Procedure: After 5 min of pre-incubation in a shaking water bath at 37 °C, the reactions were started by the addition of 1 mM NADPH. The reactions were carried out for 1 h and 2 h for liver and intestinal microsomes, respectively. For each incubation, a corresponding control incubated in the absence of NADPH was included by adding buffer instead of NADPH. To stop the metabolic conversion, 100 µl of ice-cold methanol was added and the sample was put on ice, then centrifuged at 5000 × g for 20 min at 4 °C using a microcentrifuge (CT15RE, VWR, Leuven, Belgium). Supernatants were diluted 200 times in 90% (v/v) acetonitrile and transferred to LC–MS vials. LC–MS analysis was performed using a Shimadzu Nexera XR LC-20AD SR UPLC system in tandem with a Shimadzu LCMS-8040 mass spectrometer (Shimadzu, Kyoto, Japan). From each incubation, 1 µl of supernatant was loaded onto a Luna Omega polar C18 100A LC column (1.6 µm 100 × 2.1 mm, Phenomenex) fitted with a FP polar precolumn (Phenomenex), using a flow rate of 0.3 ml/min. The temperature was set at 40 °C and 5 °C for column and sample, respectively. The mobile phase consisted of ultrapure water (solvent A) and acetonitrile (solvent B) both containing 0.1% (v/v) formic acid. The gradient began with 100% solvent A (0% B) for 1 min to wash away unwanted salts, followed by a linear gradient from 0 to 5% B till 8 min and a further increase to 100% B in 2 min, keeping the elution at 100% B for 0.5 min, then the column was set back to the starting conditions and equlibrated for 3.4 min before the next injection. […] For all incubations, three independent replicates were performed.
The ratio of Vmax and Km was calculated as the in vitro catalytic efficiency (kcat) expressed in […]. […] The rat liver weight of 8.5 g and small intestine weight of 3.5 g (see Table 1) (Brown et al. [1997]) were used to scaled the in vivo kcat values to values expressed in ml/min/tissue.

[8] = ref Merz and Schrenk ([2016]); cited from earlier work
[9] = ref Chen et al. [2018]; cited from earlier work; remark: listed apart in the source

Structure (SMILES)	times more toxic than monocrotaline in vitro (primary rat hepatocytes [1])	EC50 (primary rat hepatocytes [2]) [µM]	potency group [3]	Km ([4]; liver) [µM]	Km ([5]; intestine) [µM]	Tissue/blood partition coefficient, fat (PF) [6]	Tissue/blood partition coefficient, liver (PL) [6]	Tissue/blood partition coefficient, richly perfused tissue (PR) [6]	Tissue/blood partition coefficient, slowly perfused tissue (PS) [6]	Tissue/blood partition coefficient, small intestine (PI) [6]	further results
C/C=C(/C)C(=O)O[C@H]1CCN2CC=C(COC(=O)[C@@](O)([C@H](C)OC)C(C)(C)O)[C@H]12 [Lasiocarpine]	35.7	10.9	group 1	19.5	23.4	2.44	0.88	0.88	0.48	0.88	–
C=C1C/C(=C/C)C(=O)O[C@@H]2CCN3CC=C(COC(=O)[C@@]1(O)CO)[C@H]23 [Riddelliine]	20.7	6.3	group 1	75.7	221	0.44	0.77	0.77	0.43	0.77	in vivo scaled kcat (ml/min tissue) liver relative to intestine [7]: 253 times; pRPF (provisional relative potency factor) [3]: 1; pRPF (provisional relative potency factor) [8]: ~1.0; Scaled kcat ([4]; liver weight 8.5 g): 8.2 ml/min/ tissue; Scaled Vmax ([4]; liver): 73.5 nmol/min/g tissue; Scaled kcat ([4]; liver): 0.97 ml/min/g tissue; Vmax ([4]; liver): 2.1 nmol/min/mg microsomal protein; Scaled Vmax ([5]; intestine): 2.06 nmol/min/g tissue; Scaled kcat ([5]; intestine): 0.009 ml/min/g tissue; Vmax ([5]; intestine): 0.1 nmol/min/mg microsomal protein; Scaled kcat ([5]; small intestine weight 3.5 g): 0.03 ml/min/ tissue; Ka derived from Eq. 5 [9]: 1.17 h⁻¹
